# Measurements published in patent US20240101546A1, “HETEROARYL-ACETYLENES, PHARMACEUTICAL COMPOSITIONS THEREOF, AND THEIR THERAPEUTIC APPLICATIONS” (Eubulus Biotherapeutics Inc., priority 2020, published 2024).
# System: lung cancer cell line NCI-H82
# Test: Cell proliferation assay, NCI-H82 (CELL-TITER GLO)
# Assay type: cell-based
# Conditions: Homo sapiens, NCI-H82, 72 h, NCI-H82 cells, 72 h incubation, cell viability by CELL-TITER GLO, top concentration 1 μM; read-out: EC50, Inhibition of NCl-H82 Cell Proliferation
# Description: The activity of a compound was determined in a cell proliferation assay using the lung cancer cell line NCI-H82. Cells (1,000 cells per well) were cultured with RPMI1640 in a 384-well tissue culture plate. After incubated overnight, the compound was added at predetermined concentrations, starting with 1 μM and followed by a 3-fold serial dilution. After the cells were incubated for 72 h, cell viability was determined using a CELL-TITER GLO assay. The CELL-TITER GLO reagent (25 μL) was added to each well and the luminescence was measured by a multimode microplate reader after a brief period of shaking. EC50 values were determined for the compound. The results are summarized in Table 1, wherein A represents a value no greater than 200 nM, B represents a value greater than 200 nM but no greater than 1 μM, C represents a value greater than 1 μM but no greater than […], and D represents a value greater than 5 μM.
row,SMILES,EC50 [nM]
1,"C#Cc1nnc(NC(=O)N[C@@H](COC(N)=O)c2ccc(-c3cccc(N4CCCC4)n3)cc2)s1 [Compound A94, (R)-2-(3-(5-Ethynyl-1,3,4-thiadiazol-2-yl)ureido)-2-(4-(6-(pyrrolidin-1-yl)-pyridin-2-yl)phenyl)ethyl carbamate]",≤ 200
2,"C#Cc1nnc(NC(=O)N(C)[C@@H](COC(N)=O)c2ccc(-c3cccc(N4CCCC4)n3)cc2)s1 [Compound A95, (R)-2-(3-(5-Ethynyl-1,3,4-thiadiazol-2-yl)-1-methylureido)-2-(4-(6-(pyrrolidin-1-yl)pyridin-2-yl)phenyl)ethyl carbamate]",≤ 200
3,"C#Cc1nnc(NC(=O)N[C@@H](CO)c2ccc(-c3cccc(N4CCCC4)n3)cn2)s1 [Compound A96, (R)-1-(5-Ethynyl-1,3,4-thiadiazol-2-yl)-3-(2-hydroxy-1-(6-(pyrrolidin-1-yl)-[2,3′-bipyridin]-6′-yl)ethyl)urea]",≤ 200
4,"C#Cc1nnc(NC(=O)N[C@@H](COC(N)=O)c2ccc(-c3cccc(N4CCCC4)n3)cn2)s1 [Compound A97, (R)-2-(3-(5-Ethynyl-1,3,4-thiadiazol-2-yl)ureido)-2-(6-(pyrrolidin-1-yl)-[2,3′-bipyridin]-6′-yl)ethyl carbamate]",≤ 200
5,"C#Cc1nc(NC(=O)N[C@@H](CO)c2ccc(-c3cccnc3N(C)C)cc2)cs1 [Compound A98, (R)-1-(1-(4-(2-(Dimethylamino)pyridin-3-yl)phenyl)-2-hydroxyethyl)-3-(2-ethynylthiazol-4-yl)urea]",≤ 200
6,"C#Cc1nc(NC(=O)N[C@@H](COC(N)=O)c2ccc(-c3cccnc3N(C)C)cc2)cs1 [Compound A99, (R)-2-(4-(2-(Dimethylamino)pyridin-3-yl)phenyl)-2-(3-(2-ethynylthiazol-4-yl)-ureido)ethyl carbamate]",≤ 200
7,"C#Cc1nc(NC(=O)N[C@@H](CO)c2ccc(-c3cccnc3N(C)C)c(Cl)c2)cs1 [Compound A100, (R)-1-(1-(3-Chloro-4-(2-(dimethylamino)pyridin-3-yl)phenyl)-2-hydroxyethyl)-3-(2-ethynylthiazol-4-yl)urea]",≤ 200
8,"C#Cc1nc(NC(=O)N[C@@H](COC(N)=O)c2ccc(-c3cccnc3N(C)C)c(Cl)c2)cs1 [Compound A101, (R)-2-(3-Chloro-4-(2-(dimethylamino)pyridin-3-yl)phenyl)-2-(3-(2-ethynyl-thiazol-4-yl)ureido)ethyl carbamate]",≤ 200
9,"C#Cc1nc(NC(=O)N[C@@H](CO)c2ccc(-c3cccnc3N3CC(F)(F)C3)cc2)cs1 [Compound A102, (R)-1-(1-(4-(2-(3,3-Difluoroazetidin-1-yl)pyridin-3-yl)phenyl)-2-hydroxyethyl)-3-(2-ethynylthiazol-4-yl)urea]",≤ 200
10,"C#Cc1nc(NC(=O)N[C@@H](COC(N)=O)c2ccc(-c3cccnc3N3CC(F)(F)C3)cc2)cs1 [Compound A103, (R)-2-(4-(2-(3,3-Difluoroazetidin-1-yl)pyridin-3-yl)phenyl)-2-(3-(2-ethynyl-thiazol-4-yl)ureido)ethyl carbamate]",≤ 200
11,"C#Cc1nc(NC(=O)N[C@@H](CO)c2ccc(-c3cccc4ccnc(O)c34)cc2)cs1 [Compound A104, (R)-1-(2-Ethynylthiazol-4-yl)-3-(2-hydroxy-1-(4-(1-hydroxyisoquinolin-8-yl)-phenyl)ethyl)urea]",≤ 200
12,"C#Cc1nc(NC(=O)N[C@@H](COC(N)=O)c2ccc(-c3cccc4ccnc(O)c34)cc2)cs1 [Compound A105, (R)-2-(3-(2-Ethynylthiazol-4-yl)ureido)-2-(4-(1-hydroxyisoquinolin-8-yl)phenyl)-ethyl carbamate]",≤ 200
13,"C#Cc1nc(NC(=O)N[C@@H](CO)c2ccc(-c3cccc4ccnc(O)c34)c(Cl)c2)cs1 [Compound A107, (R)-1-(1-(3-Chloro-4-(1-hydroxyisoquinolin-8-yl)phenyl)-2-hydroxyethyl)-3-(2-ethynylthiazol-4-yl)urea]",≤ 200
14,"C#Cc1nnc(NC(=O)N[C@@H](CO)c2ccc(-c3cccc4ccnc(O)c34)cc2)s1 [Compound A108, (R)-1-(5-Ethynyl-1,3,4-thiadiazol-2-yl)-3-(2-hydroxy-1-(4-(1-hydroxyisoquinolin-8-yl)phenyl)ethyl)urea]",200 to 1000
15,"C#Cc1nc(NC(=O)N[C@@H](CO)c2ccc(-c3cccc4ncnc(O)c34)cc2)cs1 [Compound A109, (R)-1-(2-Ethynylthiazol-4-yl)-3-(2-hydroxy-1-(4-(4-hydroxyquinazolin-5-yl)phenyl)ethyl)urea]",≤ 200
16,"C#Cc1nc(NC(=O)N[C@@H](CO)c2ccc(-c3cccc4ncnc(O)c34)c(Cl)c2)cs1 [Compound A110, (R)-1-(1-(3-Chloro-4-(4-hydroxyquinazolin-5-yl)phenyl)-2-hydroxyethyl)-3-(2-ethynylthiazol-4-yl)urea]",≤ 200
17,"C#Cc1nc(NC(=O)N(C)[C@@H](CO)c2ccc(-c3cccc4ncsc34)cc2)cs1 [Compound A111, (R)-1-(1-(4-(Benzo[d]thiazol-7-yl)phenyl)-2-hydroxyethyl)-3-(2-ethynylthiazol-4-yl)-1-methylurea]",≤ 200
18,"C#Cc1nc(N(C)C(=O)N[C@@H](CO)c2ccc(-c3cccc4ncsc34)cc2)cs1 [Compound A112, (R)-3-(1-(4-(Benzo[d]thiazol-7-yl)phenyl)-2-hydroxyethyl)-1-(2-ethynylthiazol-4-yl)-1-methylurea]",≤ 200
19,"C#Cc1nc(N(C)C(=O)N(C)[C@@H](CO)c2ccc(-c3cccc4ncsc34)cc2)cs1 [Compound A113, (R)-1-(1-(4-(Benzo[d]thiazol-7-yl)phenyl)-2-hydroxyethyl)-3-(2-ethynylthiazol-4-yl)-1,3-dimethylurea]",200 to 1000
20,"C#Cc1nc(NC(=O)N[C@@H](CO)c2ccc(-c3cccc4ncsc34)cn2)cs1 [Compound A114, (R)-1-(1-(5-(Benzo[d]thiazol-7-yl)pyridin-2-yl)-2-hydroxyethyl)-3-(2-ethynyl-thiazol-4-yl)urea]",≤ 200
21,"C#Cc1nc(NC(=O)N[C@@H](CS(N)(=O)=O)c2ccc(-c3ccc(F)c4ncsc34)c(Cl)c2)cs1 [Compound A115, (R)-2-(3-Chloro-4-(4-fluorobenzo[d]thiazol-7-yl)phenyl)-2-(3-(2-ethynylthiazol-4-yl)ureido)ethane-1-sulfonamide]",≤ 200
22,"C#Cc1nc(NC(=O)N[C@@H](COC(=O)[C@@H](N)C(C)C)c2ccc(-c3cccc4ncsc34)cc2)cs1 [Compound A116, (R)-2-(4-(Benzo[d]thiazol-7-yl)phenyl)-2-(3-(2-ethynylthiazol-4-yl)ureido)ethyl L-valinate]",≤ 200
23,"C#Cc1nc(NC(=O)N[C@@H](COC(=O)CCC/C=C\C/C=C\C/C=C\C/C=C\CCCCC)c2ccc(-c3cccc4ncsc34)cc2)cs1 [Compound A117, (5Z,8Z,11Z,14Z)—(R)-2-(4-(Benzo[d]thiazol-7-yl)phenyl)-2-(3-(2-ethynylthiazol-4-yl)ureido)ethyl icosa-5,8,11,14-tetraenoate]",≤ 200
24,"C#Cc1ncc(NC(=O)N[C@@H](CO)c2ccc(-c3cccc4ncsc34)cc2)s1 [Compound A118, (R)-1-(1-(4-(Benzo[d]thiazol-7-yl)phenyl)-2-hydroxyethyl)-3-(2-ethynylthiazol-5-yl)urea]",200 to 1000
25,"C#Cc1nc(NC(=O)N[C@@H](CO)c2ccc(-c3cccc4ncsc34)cc2)c(C)s1 [Compound A119, (R)-1-(1-(4-(Benzo[d]thiazol-7-yl)phenyl)-2-hydroxyethyl)-3-(2-ethynyl-5-methylthiazol-4-yl)urea]",≤ 200
